Several values for one entry are separate records, joined by “and”; a condition that tells them apart may be missing. Identical values can stand only once.
Experiment: mn = molality of the nth substance listed, in mol/kg
Conditions: 100 kPa, Liquid; for speed of sound: Frequency=3 MHz, Single path-length method; for mass density: Vibrating tube method

CCCCn1cc[n+](C)c1.F[B-](F)(F)F [1-butyl-3-methylimidazolium tetrafluoroborate] + O
Conditions | mass density, 288.15 K [kg/m3] | mass density, 293.15 K | mass density, 298.15 K | mass density, 303.15 K | mass density, 308.15 K | speed of sound, 288.15 K [m/s] | speed of sound, 293.15 K [m/s] | speed of sound, 298.15 K [m/s] | speed of sound, 303.15 K [m/s] | speed of sound, 308.15 K [m/s]
m1 = 0.005 | 999.42 | 998.517 kg/m3 | 997.393 kg/m3 | 995.982 kg/m3 | 994.365 kg/m3 | 1464.7 | 1482.6 | 1497.5 | 1512.3 | 1519.6
m1 = 0.01 | 999.705 | 998.831 kg/m3 | 997.7 kg/m3 and 997.702 kg/m3 | 996.31 kg/m3 and 996.311 kg/m3 | 994.694 kg/m3 | 1465.1 | 1483.1 | 1497.9 | 1512.8 | 1520.6
m1 = 0.03 | 1000.86 | 999.967 kg/m3 and 999.97 kg/m3 | 998.803 kg/m3 | 997.512 kg/m3 and 997.51 kg/m3 | 995.895 kg/m3 | 1467 | 1484.9 | 1499.8 | 1514.6 | 1522.4
m1 = 0.05 | 1002 | 1001 kg/m3 | 999.906 kg/m3 and 999.91 kg/m3 | 998.675 kg/m3 and 998.68 kg/m3 | 996.998 kg/m3 and 997 kg/m3 | 1468.8 | 1486.7 | 1501.6 | 1516.4 | 1524.2
